In PMC12376128, “In vitro and In Vivo Drug Metabolism Analysis of BPI-460372 - A Covalent TEAD1/3/4 Inhibitor” (Current Drug Metabolism, 2025):
Where two headings read alike, the source gives them in different places.

Key:
[1] = parameters: method as in PMID 32250617; conditions: mouse whole blood, compared with compound 18 (acrylamide warhead); cited from earlier work
[2] = parameters: method as in PMID 32250617; conditions: dog whole blood, compared with compound 18 (acrylamide warhead); cited from earlier work
[3] = parameters: method as in PMID 32250617; conditions: human whole blood, compared with compound 18 (acrylamide warhead); cited from earlier work
monkey hepatocytes = assay: Metabolism and metabolite formation in hepatocytes; format: in vitro ADME, cynomolgus monkey;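 as to Area Ratio T4 h: peak area of analyte divided by internal standard peak area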
Source text: (§1) All the samples were duplicates.

dog hepatocytes = assay: Metabolism and metabolite formation in hepatocytes; format: in vitro ADME, beagle dog;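 as to Area Ratio T0 h: peak area of analyte divided by internal standard peak area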;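 as to Area Ratio T4 h: peak area of analyte divided by internal standard peak area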
Source text: as §1

rat hepatocytes = assay: Metabolism and metabolite formation in hepatocytes; format: in vitro ADME, SD rat;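 as to Area Ratio T0 h: peak area of analyte divided by internal standard peak area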
Source text: as §1

mouse hepatocytes = assay: Metabolism and metabolite formation in hepatocytes; format: in vitro ADME, ICR mouse;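 as to Area Ratio T0 h: peak area of analyte divided by internal standard peak area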;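 as to Area Ratio T4 h: peak area of analyte divided by internal standard peak area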
Source text: as §1

[4] = Metabolite identification in rat plasma, urine, feces and bile; format: in vivo, SD rats
Experimental: (§2) The plasma samples were acquired from SD rats (n=6, 3 female and 3 male) and beagle dogs (n=6, 3 female and 3 male) after administration of 12 mg/kg and 8 mg/kg of BPI-460372, respectively. The rat urine, feces, and bile samples were acquired in SD rats after administration of 6 mg/kg of BPI-460372.
(§3) Equal volume from each rat was pooled together to get 1 male and 1 female 0-24 h plasma samples. An equal percentage by volume of individual urine sample (0-8, 8-24, and 24-48 h) from 3 female and 3 male rats was pooled by time interval across rats, respectively, resulting in two pooled urine samples (1 male and 1 female). An equal percentage by weight of individual feces samples (0-8, 8-24, and 24-48 h) was pooled by time interval across female and male rats, resulting in two pooled fecal samples. An equal percentage by volume of individual bile samples (0-4, 4-8, 8-24, and 24-48 h) was pooled by time interval across female and male rats, resulting in two pooled bile samples. […] Equal volumes from 3 female and 3 male rats were pooled together to get two 0-48 h plasma samples. For blank samples of plasma, urine, and bile, equal volume was pooled across subjects. For a blank sample of feces, equal weight was pooled across rats.
(§4) The pooled plasma, feces, and bile samples were extracted by adding 3-fold volume of acetonitrile, and the mixture was vortexed (1 min) and sonicated (1 min) before centrifugation (7220 g, 5 min). The pooled urine samples were centrifuged (7220 g, 5 min). Then the supernatant was transferred into a clean tube and evaporated to dryness under the nitrogen stream. The residues were redissolved with an appropriate volume of acetonitrile/water (20: 80, v: v). After centrifugation, the redissolved solution was transferred into an HPLC vial for UHPLC-Orbitrap-HRMS (15000 g, 10 min, 4°C).

[5] = Metabolite identification in dog plasma; format: in vivo, beagle dogs; conditions: oral 8 mg/kg BPI-460372, average of male and female pooled samples
Experimental: as §2, §3, §4

TEAD proteins = assay: Covalent binding to TEAD proteins (in vitro); conditions: in vitro studies
TEAD palmitoylation = assay: Inhibition of TEAD palmitoylation (in vitro); format: biochemical; conditions: in vitro studies
[6] = Formation of M335 in HLMs with and without NADPH; format: in vitro ADME, human; conditions: 45 minutes of incubation of BPI-460372 with HLMs
human hepatocytes [7] = assay: Metabolism and metabolite formation in hepatocytes
Experimental: (§5) 10 µM BPI-460372 was incubated in five species (human, cynomolgus monkey, beagle dog, SD rat, and ICR mouse) hepatocytes (1 × 10^6 cells·min^-1) at 37 °C for 4 h. 7-EC, as positive control, was incubated for 0 h and 4 h. For blank control, hepatocytes were inactivated by adding ice-cold acetonitrile, and then the BPI-460372 solution was added. All the samples were duplicates. Incubations were stopped using the same volume of cold acetonitrile. The tube was vortexed, and the duplicate samples were combined. Metabolite profiling and identification of BPI-460372 were conducted by using UHPLC-Orbitrap-HRMS. The samples of 7-EC were analyzed by LC-MS/MS and then semi-quantified using the peak area ratio of analyte versus IS.
(§6) For hepatocyte metabolite identification, the different metabolites of BPI-460372 were detected using an ACQUITY UPLC HSS T3 column (1.8 µm, 100 mm × 2.1 mm) and ACQUITY UPLC BEH C18 column (1.7 µm, 100 mm × 2.1 mm) for rat and dog metabolite identification. The mobile phase contained a mixture of 0.1% formic acid in water (A) and 0.1% formic acid in acetonitrile (B). The gradient elution program was as follows: 0.0-1.0 min, 5% B; 1.0-7.0 min, 5%-30% B; 7.0-12.0 min, 30%-80% B; 12.0-16.0 min, 80%-95% B; 16.0-18.0 min, 95% B; 18.0-18.1 min, 95%-5% B. Then, 5% B from 18.1 to 20.0 min was maintained for equilibration. The flow rate was set to 0.5 mL/min, and the column temperature was kept at 40°C. Eluted fractions were monitored by a UV detector at 314 nm.

[8] = system: cysteine S-conjugate β-lyase; assay: Effect of cysteine S-conjugate β-lyase inhibitor AOAA on the metabolism of BPI-460372 (rat urine); conditions: 20 mg/kg BPI-460372 + 100 mg/kg AOAA, once daily 21 days, urine 0-48 h on day 21
human hepatocytes [9] = conditions: 0 h
Experimental: as §5, §6

CYPs and GSTs = system: CYPs and GSTs; parameters: method as in earlier work; conditions: multiple CYPs and GSTs pathways; cited from earlier work
[10] = oral 6 mg/kg BPI-460372, average of male and female pooled samples

For C=C(F)C(=O)N1CCN(c2nc(OC[C@@H]3CCCN3C)nc3c2CCN(c2cccc4cccc(Cl)c24)C3)C[C@@H]1CC#N [Adagrasib], which “Stability in whole blood” value [1] is on record?
The value was “higher stability”.

And the “Stability in whole blood” value [2]?
Its value is “higher stability”.

What about the “Stability in whole blood” value [3] of the same compound?
Its value is “higher stability”.

Which “UV (314 nm) Peak Areas Relative Abundance” value (monkey hepatocytes; cynomolgus monkey hepatocytes, 10 µM BPI-460372, 4 h incubation) does the source give for O=c1n(-c2ccc(C(F)(F)F)cc2)c2nccnc2n1C1CNC1 [M335 (BPI-460608)] here?
The value was 16.99%.

And the “UV (314 nm) Peak Areas Relative Abundance” value (dog hepatocytes; beagle dog hepatocytes, 10 µM BPI-460372, 4 h incubation)?
The value was 18.82%.

And the “UV (314 nm) Peak Areas Relative Abundance” value (rat hepatocytes; SD rat hepatocytes, 10 µM BPI-460372, 4 h incubation)?
The value was 3.9%.

And the “UV (314 nm) Peak Areas Relative Abundance” value (mouse hepatocytes; ICR mouse hepatocytes, 10 µM BPI-460372, 4 h incubation)?
Its value is 26.4%.

What about the “Relative abundance of MS peak areas, Rat Bile 0-48 h” value [4, 10] of the same compound?
Its value is 0.070%.

And the “Relative abundance of MS peak areas, Rat Feces 0-48 h” value [4, 10]?
The value was 4.83%.

What about the “Relative abundance of MS peak areas, Rat Urine 0-48 h” value [4, 10] of the same compound?
The value was 13.23%.

What about the “Relative abundance of MS peak areas, Rat Plasma 0-24 h” value ([4]; oral 12 mg/kg BPI-460372, average of male and female pooled samples) of the same compound?
Its value is 2.48%.

What about the “Relative abundance of MS peak areas, Dog Plasma 0-48 h” value [5] of the same compound?
Its value is 8.45%.

What about the “Covalent binding to TEAD proteins” value (TEAD proteins) of the same compound?
Its value is “do not covalently bind”.

What about the “Activity: inhibition of TEAD palmitoylation” value (TEAD palmitoylation) of the same compound?
The value was “inactive”.

And the “Formation of M335 without NADPH versus HLMs+NADPH group” value [6]?
The value was “comparable”.

What about the “UV (314 nm) Peak Areas Relative Abundance” value (human hepatocytes [7]; human hepatocytes, 10 µM BPI-460372, 4 h incubation) of the same compound?
Its value is 11.47%.

What about the “Area ratio in rat urine, mean (%CV)” value [8] of the same compound?
The value was 1.41 (48).

Which results are given for CCOc1ccc2ccc(=O)oc2c1 [7-EC, 7-ethoxycoumarin, reference compound]?
Area Ratio T0 h (monkey hepatocytes; monkey hepatocytes, 7-EC incubation, 0 h): 2.65E+07; Area Ratio T4 h (monkey hepatocytes; monkey hepatocytes, 7-EC incubation, 4 h): 9.51E+04; Proportion of 7-EC remaining in hepatocytes after 4 h incubation (monkey hepatocytes; monkey, hepatocytes): 0.36%; Area Ratio T0 h (dog hepatocytes; dog hepatocytes, 7-EC incubation, 0 h): 2.18E+07; Area Ratio T4 h (dog hepatocytes; dog hepatocytes, 7-EC incubation, 4 h): 1.01E+05; Proportion of 7-EC remaining in hepatocytes after 4 h incubation (dog hepatocytes; dog, hepatocytes): 0.46%; Area Ratio T0 h (rat hepatocytes; rat hepatocytes, 7-EC incubation, 0 h): 2.64E+07; Area Ratio T4 h (rat hepatocytes; rat hepatocytes, 7-EC incubation, 4 h): 6.62E+06; Proportion of 7-EC remaining in hepatocytes after 4 h incubation (rat hepatocytes; rat, hepatocytes): 25.08%; Area Ratio T0 h (mouse hepatocytes; mouse hepatocytes, 7-EC incubation, 0 h): 2.39E+07; Area Ratio T4 h (mouse hepatocytes; mouse hepatocytes, 7-EC incubation, 4 h): 1.46E+05; Proportion of 7-EC remaining in hepatocytes after 4 h incubation (mouse hepatocytes; mouse, hepatocytes): 0.61%; Area Ratio T0 h (human hepatocytes [9]): 3.36E+07; Area Ratio T4 h (human hepatocytes [7]; human hepatocytes, 7-EC incubation, 4 h): 7.50E+06; Proportion of 7-EC remaining in hepatocytes after 4 h incubation (human hepatocytes [7]; human, hepatocytes): 22.32%

For C=CC(=O)N1C[C@H](Nc2ncnc3[nH]ccc23)CC[C@@H]1C [Ritlecitinib], which “Contribution of any single route to the total metabolism” value (CYPs and GSTs) is on record?
The value was no more than 25%.
